This passage reports EC50 results from patent US8895578B2, “Carboxamide, sulfonamide and amine compounds and methods for using the same” (Rigel Pharmaceuticals, Inc., priority 2007, dated 2014).

The EC50 is the concentration that produces a half-maximal response. The low end stands for greater potency, the high end for weaker potency.

One assay concerns the target AMPK. Kind of assay: AMPK activation, enzyme-linked immunosorbent assay. The format is biochemical. Particulars: Table 2, ELISA. The protocol:
Compounds 1-54 were assayed for their ability to activate AMPK using an enzyme-linked immunosorbent assay.
Compounds 55-62 of Table 1 were assayed for their ability to activate AMPK using an enzyme-linked immunosorbent assay.
Compounds 63-66 of Table 1 were assayed for their ability to activate AMPK using an enzyme-linked immunosorbent assay.
Compounds 67-71 of Table 1 were assayed for their ability to activate AMPK using an enzyme-linked immunosorbent assay.
Compound 72 of Table 1 was assayed for its ability to activate AMPK using an enzyme-linked immunosorbent assay.
Take `N#Cc1cccc(S(=O)(=O)N2CCC(NC(=O)c3ccc4[nH]c5c(c4c3)CN(Cc3ccc(C(F)(F)F)cc3)CC5)CC2)c1` [Compound 29, N-(1-(3-cyanophenyl-sulfonyl)piperidin-4-yl)-2-(4-(trifluoromethyl)benzyl)-2,3,4,5-tetrahydro-1H-pyrido[4,3-b]indole-8-carboxamide]: the concentration for a half-maximal effect (EC50) lay within 1 to 5 µM. Regarding `O=C(NC1CCN(S(=O)(=O)c2cccc(C(F)(F)F)c2)CC1)c1ccc2[nH]c3c(c2c1)CN(Cc1ccc(C(F)(F)F)cc1)CC3` [Compound 30, 2-(4-(trifluoromethyl)benzyl)-N-(1-(3-(trifluoro-methyl)phenylsulfonyl)piperidin-4-yl)-2,3,4,5-tetrahydro-1H-pyrido [4,3-b]indole-8-carboxamide], the half-maximal effective concentration (EC50) lay in the range of 1 to 5 µM. Still for that read-out and setting: then `O=C(NC1CCN(S(=O)(=O)c2ccc(Cl)cc2)CC1)c1ccc2[nH]c3c(c2c1)CN(Cc1ccc(C(F)(F)F)cc1)CC3` [Compound 32, N-(1-(4-chlorophenyl-sulfonyl)piperidin-4-yl)-2-(4-(trifluoromethyl)benzyl)-2,3,4,5-tetrahydro-1H-pyrido[4,3-b]indole-8-carboxamide], with 1 to 5 µM; and `O=C(NC1CCN(C(=O)Nc2ccc(C(F)(F)F)cc2)CC1)c1ccc2[nH]c3c(c2c1)CN(Cc1ccc(C(F)(F)F)cc1)CC3` [Compound 33, 2-(4-(trifluoromethyl)benzyl)-N-(1-(4-(trifluoro-methyl)phenylcarbamoyl)piperidin-4-yl)-2,3,4,5-tetrahydro-1H-pyrido[4,3-b]indole-8-carboxamide], with 1 to 5 µM; and `O=C(NC1CCN(S(=O)(=O)c2ccc(F)cc2)CC1)c1ccc2[nH]c3c(c2c1)CN(c1ccc(F)cc1)CC3` [Compound 35, 2-(4-fluorophenyl)-N-(1-(4-fluorophenylsulfonyl)piperidin-4-yl)-2,3,4,5-tetrahydro-1H-pyrido[4,3-b] indole-8-carboxamide], with 10 to 50 µM.

In the case of `O=C(NC1CCN(Cc2cccnc2)CC1)c1ccc2[nH]c3c(c2c1)CN(c1ccc(F)cc1)CC3` [Compound 36, 2-(4-fluorophenyl)-N-(1-(pyridin-3-ylmethyl)piperidin-4-yl)-2,3,4,5-tetrahydro-1H-pyrido[4,3-b]indole-8-carboxamide], the 50% effective concentration (EC50) is > 100 µM. Same read-out and setting: then `O=C(NC1CCN(Cc2ccc(C(F)(F)F)cc2)CC1)c1ccc2[nH]c3c(c2c1)CN(c1ccc(F)cc1)CC3` [Compound 37, 2-(4-fluorophenyl)-N-(1-(4-(trifluoromethyl)benzyl)piperidin-4-yl)-2,3,4,5-tetrahydro-1H-pyrido[4,3-b] indole-8-carboxamide], with 5 to 10 µM. `CC(C)(C)OC(=O)N1CCC(NC(=O)c2ccc3[nH]c4c(c3c2)CN(c2ccc(F)cc2)CC4)CC1` [Compound 38, tert-butyl 4-(2-(4-fluorophenyl)-2,3,4,5-tetrahydro-1H-pyrido[4,3-b]indole-8-carboxamido) piperidine-1-carboxylate]: the EC50 lay within 10 to 50 µM. Still for that read-out and setting: then `O=C(NC1CCN(C(=O)c2ccc(F)cc2)CC1)c1ccc2[nH]c3c(c2c1)CN(c1ccc(F)cc1)CC3` [Compound 39, N-(1-(4-fluorobenzoyl)piperidin-4-yl)-2-(4-fluorophenyl)-2,3,4,5-tetrahydro-1H-pyrido [4,3-b]indole-8-carboxamide], with 10 to 50 µM. On the same count and under the same terms, then `O=C(NC1CCN(C(=O)c2cccnc2)CC1)c1ccc2[nH]c3c(c2c1)CN(c1ccc(F)cc1)CC3` [Compound 40, 2-(4-fluorophenyl)-N-(1-nicotinoylpiperidin-4-yl)-2,3,4,5-tetrahydro-1H-pyrido[4,3-b]indole-8-carboxamide], with > 100 µM; and `O=C(NC1CCN(C(=O)c2ccc(C(F)(F)F)cc2)CC1)c1ccc2[nH]c3c(c2c1)CN(c1ccc(F)cc1)CC3` [Compound 41, 2-(4-fluorophenyl)-N-(1-(4-(trifluoromethyl)benzoyl)piperidin-4-yl)-2,3,4,5-tetrahydro-1H-pyrido[4,3-b] indole-8-carboxamide], with 10 to 50 µM; and `CC(C)(C)OC(=O)N1CCC(NC(=O)c2ccc3[nH]c4c(c3c2)CN(Cc2ccc(C(N)=O)cc2)CC4)CC1` [Compound 43, tert-butyl 4-(2-(4-carbamoyl-benzyl)-2,3,4,5-tetrahydro-1H-pyrido[4,3-b]indole-8-carboxamido)piperidine-1-carboxylate], with > 100 µM. Same read-out and setting: the same measure for `N#Cc1ccc(CN2CCC(NC(=O)c3ccc4[nH]c5c(c4c3)CN(Cc3ccc(C(N)=O)cc3)CC5)CC2)cc1` [Compound 44, 2-(4-carbamoylbenzyl)-N-(1-(4-cyanobenzyl)piperidin-4-yl)-2,3,4,5-tetrahydro-1H-pyrido[4,3-b]indole-8-carboxamide]: 10 to 50 µM; for `NC(=O)c1ccc(CN2CCc3[nH]c4ccc(C(=O)NC5CCN(Cc6ccncc6)CC5)cc4c3C2)cc1` [Compound 45, 2-(4-carbamoylbenzyl)-N-(1-(pyridin-4-ylmethyl)piperidin-4-yl)-2,3,4,5-tetrahydro-1H-pyrido [4,3-b]indole-8-carboxamide]: > 100 µM. As to `NC(=O)c1ccc(CN2CCc3[nH]c4ccc(C(=O)NC5CCN(C(=O)c6ccncc6)CC5)cc4c3C2)cc1` [Compound 46, 2-(4-carbamoylbenzyl)-N-(1-isonicotinoylpiperidin-4-yl)-2,3,4,5-tetrahydro-1H-pyrido[4,3-b]indole-8-carboxamide], the EC50 is > 100 µM. For the compound `NC(=O)c1ccc(CN2CCc3[nH]c4ccc(C(=O)NC5CCN(Cc6ccc(C(F)(F)F)cc6)CC5)cc4c3C2)cc1` [Compound 47, 2-(4-carbamoylbenzyl)-N-(1-(4-(trifluoromethyl)benzyl)piperidin-4-yl)-2,3,4,5-tetrahydro-1H-pyrido[4,3-b]indole-8-carboxamide], the EC50 fell in the range of 10 to 50 µM.

Consider `NC(=O)c1ccc(CN2CCc3[nH]c4ccc(C(=O)NC5CCN(Cc6ccc(F)cc6)CC5)cc4c3C2)cc1` [Compound 48, 2-(4-carbamoylbenzyl)-N-(1-(4-fluorobenzyl)piperidin-4-yl)-2,3,4,5-tetrahydro-1H-pyrido[4,3-b] indole-8-carboxamide], for which the EC50 is > 100 µM. Same read-out and setting: then `NC(=O)c1ccc(CN2CCC(NC(=O)c3ccc4[nH]c5c(c4c3)CN(Cc3ccc(C(N)=O)cc3)CC5)CC2)cc1` [Compound 49, 2-(4-carbamoylbenzyl)-N-(1-(4-carbamoylbenzyl)piperidin-4-yl)-2,3,4,5-tetrahydro-1H-pyrido [4,3-b]indole-8-carboxamide], with > 100 µM; and `O=C(NC1CCN(Cc2ccncc2)CC1)c1ccc2[nH]c3c(c2c1)CN(Cc1ccc(C(F)(F)F)cc1)CC3` [Compound 50, N-(1-(pyridin-4-ylmethyl)piperidin-4-yl)-2-(4-(trifluoromethyl)benzyl)-2,3,4,5-tetrahydro-1H-pyrido[4,3-b]indole-8-carboxamide], with < 0.5 µM; and `O=C(NC1CCN(C(=O)c2ccncc2)CC1)c1ccc2[nH]c3c(c2c1)CN(Cc1ccc(C(F)(F)F)cc1)CC3` [Compound 51, N-(1-isonicotinoyl-piperidin-4-yl)-2-(4-(trifluoromethyl)benzyl)-2,3,4,5-tetrahydro-1H-pyrido[4,3-b]indole-8-carboxamide], with 0.5 to 1 µM. The same measure, in the same setting: then `NC(=O)c1ccc(CN2CCC(NC(=O)c3ccc4[nH]c5c(c4c3)CN(Cc3ccc(C(F)(F)F)cc3)CC5)CC2)cc1` [Compound 52, N-(1-(4-carbamoylbenzyl)piperidin-4-yl)-2-(4-(trifluoromethyl)benzyl)-2,3,4,5-tetrahydro-1H-pyrido[4,3-b]indole-8-carboxamide], with 1 to 5 µM. Still for that read-out and setting: the same measure for `Cn1cnc(CN2CCC(NC(=O)c3ccc4[nH]c5c(c4c3)CN(Cc3ccc(C(F)(F)F)cc3)CC5)CC2)c1` [Compound 53, N-(1-((1-methyl-1H-imidazol-4-yl)methyl)piperidin-4-yl)-2-(4-(trifluoromethyl)benzyl)-2,3,4,5-tetrahydro-1H-pyrido[4,3-b]indole-8-carboxamide]: 10 to 50 µM. `O=C(NC1CCN(Cc2cocn2)CC1)c1ccc2[nH]c3c(c2c1)CN(Cc1ccc(C(F)(F)F)cc1)CC3` [Compound 54, N-(1-(oxazol-4-ylmethyl)piperidin-4-yl)-2-(4-(trifluoromethyl)benzyl)-2,3,4,5-tetrahydro-1H-pyrido[4,3-b]indole-8-carboxamide]: the EC50 was < 0.5 µM.

Staying with this assay, now noted: Table 3, ELISA.
Regarding `O=C(NC1CCN(Cc2ccccc2)CC1)c1ccc(CN2CCN(Cc3ccccc3)CC2)cc1` [Compound 55, 4-((4-benzylpiperazin-1-yl)methyl)-N-(1-benzyl-piperidin-4-yl)benzamide], the half-maximal effective concentration (EC50) is < 0.1 µM.

The compound `O=C(NC1CCN(Cc2ccccc2)CC1)c1ccc(CN2CCN(CC3CCCCC3)CC2)cc1` [Compound 56, N-(1-benzylpiperidin-4-yl)-4-((4-(cyclohexyl-methyl)piperazin-1-yl)methyl)benzamide] gave an EC50 of 1 to 10 µM. `O=C(NC1CCN(Cc2ccccc2)CC1)c1ccc(CN2CCN(c3ccc(C(F)(F)F)cn3)CC2)cc1` [Compound 57, N-(1-benzylpiperidin-4-yl)-4-((4-(5-(trifluoro-methyl)pyridin-2-yl)piperazin-1-yl)methyl) benzamide]: the concentration giving a half-maximal response (EC50) was < 0.1 µM. Regarding `O=C(NC1CCN(Cc2ccccc2)CC1)c1ccc(CN2CCN(c3ccccn3)CC2)cc1` [Compound 58, N-(1-benzylpiperidin-4-yl)-4-((4-(pyridin-2-yl)piperazin-1-yl)methyl) benzamide], the EC50 fell in the range of 1 to 10 µM. In turn, `O=C(NC1CCN(Cc2ccncc2)CC1)c1ccc(CN2CCN(Cc3ccccc3)CC2)cc1` [Compound 59, 4-((4-benzylpiperazin-1-yl)methyl)-N-(1-(pyridin-4-ylmethyl)piperidin-4-yl)benzamide] gave an EC50 of 0.1 to 0.5 µM. On the same count and under the same terms, then `O=C(NC1CCN(Cc2cccnc2)CC1)c1ccc(CN2CCN(Cc3ccccc3)CC2)cc1` [Compound 60, 4-((4-benzylpiperazin-1-yl)methyl)-N-(1-(pyridin-3-ylmethyl)piperidin-4-yl) benzamide], with 0.1 to 0.5 µM.
